Where a name gives a salt, the structure may show the parent alone.
The compounds below were run on wild-type C57BL/6J mouse and homo knockout mouse of the TMC6 gene (assay: Palatability tests for taste substances other than NaCl, two-bottle method). Details: 48 hr, taste substance aqueous solution versus control aqueous solution.
Format: in vivo
Protocol: <Taste Substance Aqueous Solutions>
MSG: 100 mM monosodium glutamate
MSG+IMP: 100 mM monosodium glutamate+1 mM inosinic acid
Citric Acid: 10 mM citric acid
Quinine HCl: 0.3 mM quinine hydrochloride
Fructose: 300 mM fructose

Row | Compound | difference in palatability or repellency between Tmc6 −/− mouse and wild-type mouse
1 | O=C(O)CC(O)(CC(=O)O)C(=O)O [Citric acid, citric acid] | No difference
2 | O=C(CO)[C@@H](O)[C@H](O)[C@H](O)CO [Fructose, fructose] | No difference
3 | OC[C@H]1O[C@@](CO)(O[C@H]2O[C@H](CO)[C@@H](O)[C@H](O)[C@H]2O)[C@@H](O)[C@@H]1O [Sucrose, sucrose] | No difference
4 | C=C[C@H]1C[N@@]2CC[C@H]1C[C@H]2[C@H](O)c1ccnc2ccc(OC)cc12 [Quinine HCl, quinine hydrochloride] | No difference
5 | N[C@@H](CCC(=O)O)C(=O)[O-].[Na+] [MSG, monosodium glutamate] | No difference

These compounds were tested against T1, mouse TMC6 protein (Mus musculus, UniProt Q7TN60, A788T) (assay: Calcium imaging (YC2.60 FRET) of CHO-K1 cells expressing the mouse TMC6 gene). Details: one typical TMC6-expressing cell, stimulation with ATP stimulation solution (50 μM ATP), FIG. 13C.
T1 construct: expressed in transfected cells; host or cells: CHO-K1
T1 sequence (Q7TN60 1-810 A788T): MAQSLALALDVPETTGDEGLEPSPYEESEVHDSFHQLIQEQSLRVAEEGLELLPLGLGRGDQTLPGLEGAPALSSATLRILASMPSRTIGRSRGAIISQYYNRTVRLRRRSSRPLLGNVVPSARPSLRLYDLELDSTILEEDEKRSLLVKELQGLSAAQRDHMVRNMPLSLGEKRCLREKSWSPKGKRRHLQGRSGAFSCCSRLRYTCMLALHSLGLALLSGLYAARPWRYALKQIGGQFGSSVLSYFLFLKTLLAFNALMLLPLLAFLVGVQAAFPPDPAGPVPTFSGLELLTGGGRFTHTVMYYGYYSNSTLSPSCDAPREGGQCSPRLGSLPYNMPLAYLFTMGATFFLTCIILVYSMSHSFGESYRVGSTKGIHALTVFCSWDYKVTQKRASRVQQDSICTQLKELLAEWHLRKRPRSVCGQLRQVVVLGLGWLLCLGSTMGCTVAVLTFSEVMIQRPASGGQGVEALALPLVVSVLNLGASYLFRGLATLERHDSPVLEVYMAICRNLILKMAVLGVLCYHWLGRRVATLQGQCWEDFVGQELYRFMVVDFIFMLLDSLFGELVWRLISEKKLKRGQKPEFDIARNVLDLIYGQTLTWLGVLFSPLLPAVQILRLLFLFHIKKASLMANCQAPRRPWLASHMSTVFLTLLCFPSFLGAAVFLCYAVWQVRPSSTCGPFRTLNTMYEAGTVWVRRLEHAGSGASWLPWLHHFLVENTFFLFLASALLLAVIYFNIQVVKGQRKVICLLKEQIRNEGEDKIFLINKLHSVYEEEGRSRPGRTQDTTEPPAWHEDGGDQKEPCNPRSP
Format: cell-based
Protocol: CHO-K1 cells were transfected with TMC6-pcDNA3.1 or pcDNA3.1 in combination with YC2.60-pcDNA, to prepare TMC6-expressing cells (cells expressing the mouse TMC6 gene and the YC2.60 gene) and control cells (cells expressing the YC2.60 gene). The prepared cells were stimulated, and activation of the cells was measured. The procedure was as follows.
That is, first, CHO-K1 cells (ATCC) were inoculated into a culture dish having a diameter of 60 mm while adjusting the number of the cells to obtain 60% confluence, and cultured for 8 hr. As the medium, 5 mL of Ham's F-12K (Kaighn's) (Life Technologies) containing 10% fetal bovine serum (Life Technologies) was used. A 15 μL aliquot of FuGENE 6 (Promega) was added to 235 μL of Opti-MEM (Thermo Fisher Scientific), and incubated for 5 min at a room temperature. Then, 0.625 μg of TMC6-pcDNA3.1 and 2.5 μg of YC2.60-pcDNA were further added thereto, and incubated for 15 min at a room temperature. Then, the whole of the resultant mixture was dropped into the culture broth of the CHO-K1 cells, and the culture broth was mildly stirred. Then, the cells were further cultured for 18 hr under a condition of 5% CO2 at 37° C., to obtain the TMC6-expressing cells. Similarly, the control cells were obtained through transfection using pcDNA3.1 instead of TMC6-pcDNA3.1.
After the cultivation, the culture broth was removed. A low-concentration NaCl solution (27 mM NaCl, 1 mM KCl, 0.4 mM CaCl2, 0.2 mM MgCl2, 2 mM Hepes (pH7.3), 1 mM NaHCO3, 2 mM glucose, 2 mM sodium pyruvate, and 112 mM NMDG-Cl) was added to the culture dish, incubation was carried out statically for 5 min, and then, stimulation and observation of cells were started. First, the low-concentration NaCl solution was perfused for approximately 80 sec, to provide a ground state. Then, a high-concentration NaCl solution (135 mM NaCl, 1 mM KCl, 0.4 mM CaCl2, 0.2 mM MgCl2, 2 mM Hepes (pH7.3), 1 mM NaHCO3, 2 mM glucose, and 2 mM sodium pyruvate) was perfused instead of the low-concentration NaCl solution for approximately 60 sec, to stimulate the cells. […]

Row | Compound | relative FRET value (YFP/CFP) of the ROI-1 cell
6 | Nc1ncnc2c1ncn2[C@@H]1O[C@H](COP(=O)(O)OP(=O)(O)OP(=O)(O)O)[C@@H](O)[C@H]1O [ATP] | ≥ 1.3

Reference: patent US10175228B2, “Method of using transmembrane channel-like protein 6 (TMC6) protein to identify substances affecting salty taste” (priority 2016, dated 2019)
